Data from ChEMBL document CHEMBL5705899 (Biochem J, 2014).
The source made the active and inactive calls. The calls are words filed in the database; no cut-off is given here.

Experiments:
[1] = target: Aurora kinase A (Homo sapiens) (UniProt O14965); test: Inhibition of human AuroraA at 1 uM using bio-4xCHKT as substrate in presence of 33P-ATP by ProQinase assay
[2] = target: Dual specificity protein kinase CLK2 (Homo sapiens) (UniProt P49760); test: Inhibition of recombinant human N-terminal GST-tagged CLK2 (138 to 499 residues) expressed in baculovirus infected Sf21 cells assessed as remaining activity at 1 uM using RNRYRDVSPFDHSR as substrate incubated for 30 mins in presence of [gamma-33P]ATP by filter binding method relative to control
[3] = target: Mitogen-activated protein kinase kinase kinase kinase 5 (Homo sapiens) (UniProt Q9Y4K4); test: Inhibition of human MAP4K5 at 1 uM using casein as substrate in presence of 33P-ATP by ProQinase assay
Chain of Mitogen-activated protein kinase kinase kinase kinase 5 (Homo sapiens) (Q9Y4K4 whole entry, looked up): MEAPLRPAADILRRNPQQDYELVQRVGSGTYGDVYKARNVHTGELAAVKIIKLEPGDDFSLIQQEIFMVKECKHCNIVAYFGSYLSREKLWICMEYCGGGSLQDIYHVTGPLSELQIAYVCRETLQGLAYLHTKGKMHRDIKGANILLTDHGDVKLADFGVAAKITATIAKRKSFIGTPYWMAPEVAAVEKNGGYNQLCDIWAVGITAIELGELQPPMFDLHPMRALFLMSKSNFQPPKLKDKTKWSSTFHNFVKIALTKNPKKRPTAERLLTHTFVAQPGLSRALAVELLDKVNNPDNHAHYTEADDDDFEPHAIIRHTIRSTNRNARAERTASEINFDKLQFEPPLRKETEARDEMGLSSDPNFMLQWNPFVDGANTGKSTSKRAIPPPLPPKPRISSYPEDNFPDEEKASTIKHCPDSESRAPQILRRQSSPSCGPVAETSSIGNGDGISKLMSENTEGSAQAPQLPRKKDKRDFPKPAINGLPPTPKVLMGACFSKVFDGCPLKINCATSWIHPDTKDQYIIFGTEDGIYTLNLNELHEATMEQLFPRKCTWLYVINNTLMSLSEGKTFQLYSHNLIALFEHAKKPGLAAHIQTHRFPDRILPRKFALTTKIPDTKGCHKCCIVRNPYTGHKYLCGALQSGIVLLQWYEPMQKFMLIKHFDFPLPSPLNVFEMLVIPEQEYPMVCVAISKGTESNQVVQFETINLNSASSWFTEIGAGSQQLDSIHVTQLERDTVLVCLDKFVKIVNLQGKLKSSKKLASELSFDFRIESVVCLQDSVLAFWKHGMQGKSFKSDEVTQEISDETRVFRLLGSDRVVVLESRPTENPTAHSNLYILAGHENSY

[4] = target: Activin receptor type-2A (Homo sapiens) (UniProt P27037); test: Inhibition of human ACVR2A at 1 uM using casein as substrate in presence of 33P-ATP by ProQinase assay
[5] = target: PI3K p110 beta/p85 alpha (Homo sapiens) (UniProt P27986+P42338); test: Inhibition of recombinant human N-terminal His6-tagged PI3Kbeta (1 to 1070 residues)/p85A (1 to 724 residues) expressed in baculovirus expression system at 1 uM using diC8 PIP2 as substrate incubated for 60 mins by ADP-Glo assay
[6] = target: NUAK family SNF1-like kinase 1 (Homo sapiens) (UniProt O60285); test: Inhibition of human ARK5 at 1 uM using RBER-CHKtide as substrate in presence of 33P-ATP by ProQinase assay
Chain of NUAK family SNF1-like kinase 1 (Homo sapiens) (O60285 whole entry, the tested form may be a part): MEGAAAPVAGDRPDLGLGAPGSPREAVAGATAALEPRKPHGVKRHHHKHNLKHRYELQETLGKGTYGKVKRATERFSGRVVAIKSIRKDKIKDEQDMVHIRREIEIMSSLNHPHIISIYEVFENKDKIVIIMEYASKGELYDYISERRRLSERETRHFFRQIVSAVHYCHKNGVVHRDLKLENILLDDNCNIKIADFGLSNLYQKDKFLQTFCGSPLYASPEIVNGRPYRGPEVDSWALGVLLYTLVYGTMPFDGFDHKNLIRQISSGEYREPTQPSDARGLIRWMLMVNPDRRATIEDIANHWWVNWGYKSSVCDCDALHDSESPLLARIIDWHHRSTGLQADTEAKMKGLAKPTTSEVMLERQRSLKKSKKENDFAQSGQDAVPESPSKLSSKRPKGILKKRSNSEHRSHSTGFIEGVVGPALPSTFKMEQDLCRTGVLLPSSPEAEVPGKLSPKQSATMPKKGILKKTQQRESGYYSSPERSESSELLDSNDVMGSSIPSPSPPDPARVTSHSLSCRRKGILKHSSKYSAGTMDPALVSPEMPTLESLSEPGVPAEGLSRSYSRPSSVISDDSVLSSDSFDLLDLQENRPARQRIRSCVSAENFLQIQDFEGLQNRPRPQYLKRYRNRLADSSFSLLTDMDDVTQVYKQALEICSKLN

[7] = target: Myosin light chain kinase, smooth muscle (Homo sapiens) (UniProt Q15746); test: Inhibition of recombinant human N-terminal GST-tagged SmMLCK (475 to 838 residues) expressed in Escherichia coli assessed as remaining activity at 1 uM using KKRPQRATSNVFA as substrate incubated for 30 mins in presence of [gamma-33P]ATP by filter binding method relative to control
Chain of Myosin light chain kinase, smooth muscle (Homo sapiens) (Q15746 whole entry, the tested form may be a part): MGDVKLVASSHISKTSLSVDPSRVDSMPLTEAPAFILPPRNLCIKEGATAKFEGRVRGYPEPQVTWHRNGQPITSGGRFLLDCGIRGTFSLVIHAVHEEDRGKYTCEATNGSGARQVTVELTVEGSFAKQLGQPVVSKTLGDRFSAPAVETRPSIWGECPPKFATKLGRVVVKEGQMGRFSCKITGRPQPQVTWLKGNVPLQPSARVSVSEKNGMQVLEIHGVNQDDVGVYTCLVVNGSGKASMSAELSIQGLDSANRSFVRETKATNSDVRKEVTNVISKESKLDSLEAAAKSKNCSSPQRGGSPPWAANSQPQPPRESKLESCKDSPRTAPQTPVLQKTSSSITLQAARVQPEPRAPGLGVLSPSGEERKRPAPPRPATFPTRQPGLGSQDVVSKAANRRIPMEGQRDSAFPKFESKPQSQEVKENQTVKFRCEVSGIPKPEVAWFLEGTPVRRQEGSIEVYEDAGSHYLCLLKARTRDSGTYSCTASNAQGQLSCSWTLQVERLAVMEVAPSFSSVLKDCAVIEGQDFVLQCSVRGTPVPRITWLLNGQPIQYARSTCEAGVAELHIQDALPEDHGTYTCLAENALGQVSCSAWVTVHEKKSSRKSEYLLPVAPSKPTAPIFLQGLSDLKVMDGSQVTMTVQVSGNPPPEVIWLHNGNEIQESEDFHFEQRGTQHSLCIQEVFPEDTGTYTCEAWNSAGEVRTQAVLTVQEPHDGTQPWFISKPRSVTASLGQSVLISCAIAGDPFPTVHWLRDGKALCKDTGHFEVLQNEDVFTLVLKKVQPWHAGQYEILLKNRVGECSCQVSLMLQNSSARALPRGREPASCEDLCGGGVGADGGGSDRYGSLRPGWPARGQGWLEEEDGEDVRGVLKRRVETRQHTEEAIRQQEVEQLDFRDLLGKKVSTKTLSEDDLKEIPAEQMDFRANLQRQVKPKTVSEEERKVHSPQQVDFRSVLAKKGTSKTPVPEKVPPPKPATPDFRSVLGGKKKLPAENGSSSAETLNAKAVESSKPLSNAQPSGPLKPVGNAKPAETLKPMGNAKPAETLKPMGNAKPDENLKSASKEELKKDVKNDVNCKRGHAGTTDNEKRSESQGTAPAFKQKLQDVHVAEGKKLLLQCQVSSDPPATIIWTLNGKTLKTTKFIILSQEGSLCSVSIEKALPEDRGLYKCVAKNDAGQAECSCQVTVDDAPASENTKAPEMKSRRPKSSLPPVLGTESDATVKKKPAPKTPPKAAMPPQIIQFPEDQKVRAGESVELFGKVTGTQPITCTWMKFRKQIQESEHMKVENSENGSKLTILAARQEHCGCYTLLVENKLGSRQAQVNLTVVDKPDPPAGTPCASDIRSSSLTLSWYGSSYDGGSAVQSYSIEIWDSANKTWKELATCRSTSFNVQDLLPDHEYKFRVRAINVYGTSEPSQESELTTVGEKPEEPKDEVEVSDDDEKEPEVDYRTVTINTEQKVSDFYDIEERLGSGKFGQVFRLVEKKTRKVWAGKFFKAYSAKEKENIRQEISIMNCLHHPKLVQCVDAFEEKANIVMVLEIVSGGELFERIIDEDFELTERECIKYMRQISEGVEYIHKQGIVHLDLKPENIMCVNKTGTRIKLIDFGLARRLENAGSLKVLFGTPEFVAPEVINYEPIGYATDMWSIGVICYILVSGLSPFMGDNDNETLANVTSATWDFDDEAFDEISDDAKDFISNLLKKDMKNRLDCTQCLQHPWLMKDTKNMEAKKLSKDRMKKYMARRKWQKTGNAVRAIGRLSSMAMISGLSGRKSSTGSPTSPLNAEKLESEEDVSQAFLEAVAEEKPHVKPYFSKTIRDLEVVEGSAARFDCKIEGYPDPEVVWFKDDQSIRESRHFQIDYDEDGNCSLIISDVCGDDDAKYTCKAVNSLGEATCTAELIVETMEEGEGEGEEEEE

[8] = target: Serine/threonine-protein kinase haspin (Homo sapiens) (UniProt Q8TF76); test: Inhibition of human GSG2 at 1 uM using histon H3 as substrate in presence of 33P-ATP by ProQinase assay
[9] = target: Phosphatidylinositol 4-kinase type 2-beta (Homo sapiens, UniProt Q8TCG2); test: Inhibition of human PI4K2B using PI/PS as substrate by ADP-Glo assay
[10] = target: Serine/threonine-protein kinase Nek1 (Homo sapiens) (UniProt Q96PY6); test: Inhibition of human NEK1 at 1 uM using RBER-CHKtide as substrate in presence of 33P-ATP by ProQinase assay
[11] = target: NUAK family SNF1-like kinase 1 (Homo sapiens) (UniProt O60285); test: (§1) Inhibition of recombinant human N-terminal His6-tagged NUAK1 (2 to 660 residues) expressed in baculovirus infected Sf21 cells assessed as remaining activity at 1 uM using ALNRTSSDSALHRRR as substrate incubated for 30 mins in presence of [gamma-33P]ATP by filter binding method relative to control
[12] = target: Cyclin-dependent kinase 5/CDK5 activator 1 (Homo sapiens) (UniProt Q00535+Q15078); test: Inhibition of human CDK5/p35NCK at 1 uM using RBER-CHKtide as substrate in presence of 33P-ATP by ProQinase assay; type: protein-complex assay
[13] = tested on: Serine/threonine-protein kinase Sgk1 (Homo sapiens), O00141 [S422D]; details: Sf21, dose 1.0 µM, time 30.0 min
[14] = target: Serine/threonine-protein kinase PLK1 (Homo sapiens) (UniProt P53350); test: Inhibition of recombinant human N-terminal His6-tagged PLK1 (1 to 603 residues) expressed in baculovirus infected Sf21 cells assessed as remaining activity at 1 uM using ISDELMDATFADQEAKKK as substrate incubated for 30 mins in presence of [gamma-33P]ATP by filter binding method relative to control
[15] = target: Ephrin type-B receptor 3 (Homo sapiens) (UniProt P54753); test: Inhibition of human EPHB3 at 1 uM using polyEY as substrate in presence of 33P-ATP by ProQinase assay
[16] = target: Serine/threonine-protein kinase Nek2 (Homo sapiens) (UniProt P51955); test: Inhibition of recombinant human N-terminal His6-tagged NEK2A (1 to 445 residues) expressed in baculovirus infected Sf21 cells assessed as remaining activity at 1 uM using RFRRSRRMI as substrate incubated for 30 mins in presence of [gamma-33P]ATP by filter binding method relative to control
[17] = target: Interleukin-1 receptor-associated kinase 4 (Homo sapiens) (UniProt Q9NWZ3); test: Inhibition of recombinant human N-terminal GST-tagged IRAK4 (140 to 460 residues) expressed in Escherichia coli assessed as remaining activity at 1 uM using MBP as substrate incubated for 30 mins in presence of [gamma-33P]ATP by filter binding method relative to control
[18] = target: Phosphatidylinositol 4,5-bisphosphate 3-kinase catalytic subunit gamma isoform (Homo sapiens, UniProt P48736); test: Inhibition of recombinant human N-terminal His6-tagged PI3Kgamma (2 to 1102 residues) expressed in baculovirus expression system at 1 uM using diC8 PIP2 as substrate incubated for 75 mins by ADP-Glo assay
[19] = target: Casein kinase I isoform delta (Homo sapiens) (UniProt P48730); test: Inhibition of human CK1delta at 1 uM using casein as substrate in presence of 33P-ATP by ProQinase assay
[20] = target: Tyrosine-protein kinase Lck (Homo sapiens) (UniProt P06239); test: Inhibition of recombinant human N-terminal His6-tagged LCK (2 to 509 residues) expressed in baculovirus infected Sf21 cells assessed as remaining activity at 1 uM using KVEKIGEGTYGVVYK as substrate incubated for 30 mins in presence of [gamma-33P]ATP by filter binding method relative to control
Chain of Tyrosine-protein kinase Lck (Homo sapiens) (P06239 2-509 limits assumed): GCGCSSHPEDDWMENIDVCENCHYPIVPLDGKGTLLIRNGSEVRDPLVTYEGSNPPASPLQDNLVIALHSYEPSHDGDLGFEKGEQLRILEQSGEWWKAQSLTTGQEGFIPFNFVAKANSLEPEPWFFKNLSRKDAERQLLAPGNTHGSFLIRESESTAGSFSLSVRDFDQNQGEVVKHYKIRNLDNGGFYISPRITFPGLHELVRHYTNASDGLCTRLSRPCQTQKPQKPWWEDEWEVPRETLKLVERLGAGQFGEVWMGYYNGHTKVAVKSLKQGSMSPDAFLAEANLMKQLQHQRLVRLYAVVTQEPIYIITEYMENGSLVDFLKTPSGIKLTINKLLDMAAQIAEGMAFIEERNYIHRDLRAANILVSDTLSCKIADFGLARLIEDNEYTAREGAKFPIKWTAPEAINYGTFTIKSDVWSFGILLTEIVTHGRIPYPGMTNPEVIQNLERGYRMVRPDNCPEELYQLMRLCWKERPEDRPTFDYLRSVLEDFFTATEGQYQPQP

[21] = target: Ribosomal protein S6 kinase alpha-5 (Homo sapiens) (UniProt O75582); details: Sf21, dose 1.0 µM, time 30.0 min
[22] = target: Cytoplasmic tyrosine-protein kinase BMX (Homo sapiens) (UniProt P51813); test: Inhibition of human BMX at 1 uM using polyEy as substrate in presence of 33P-ATP by ProQinase assay
[23] = target: Serine/threonine-protein kinase SIK2 (Homo sapiens) (UniProt Q9H0K1); test: as §1, with “GST and HA-tagged SIK2” for “His6-tagged NUAK1”, “926” for “660”
[24] = target: Serine/threonine-protein kinase 25 (Homo sapiens) (UniProt O00506); test: Inhibition of human STK25 at 1 uM using casein as substrate in presence of 33P-ATP by ProQinase assay
Chain of Serine/threonine-protein kinase 25 (Homo sapiens) (O00506 whole entry, looked up, the tested form may be a part): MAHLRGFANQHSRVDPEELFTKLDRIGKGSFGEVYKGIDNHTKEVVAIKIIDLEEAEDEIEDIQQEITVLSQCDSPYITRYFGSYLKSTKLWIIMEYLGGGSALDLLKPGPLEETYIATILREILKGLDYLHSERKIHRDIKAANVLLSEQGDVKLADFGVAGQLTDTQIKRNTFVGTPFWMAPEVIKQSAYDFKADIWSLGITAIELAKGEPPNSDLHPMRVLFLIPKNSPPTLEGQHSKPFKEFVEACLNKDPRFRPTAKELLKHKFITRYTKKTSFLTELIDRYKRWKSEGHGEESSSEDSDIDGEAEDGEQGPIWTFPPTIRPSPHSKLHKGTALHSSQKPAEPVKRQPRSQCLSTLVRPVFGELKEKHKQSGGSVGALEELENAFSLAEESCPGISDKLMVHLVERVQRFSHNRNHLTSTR

[25] = target: Serine/threonine-protein kinase PAK 6 (Homo sapiens) (UniProt Q9NQU5); test: Inhibition of recombinant human N-terminal GST-tagged PAK6 (2 to 681 residues) expressed in Escherichia coli assessed as remaining activity at 1 uM using RRRLSFAEPG as substrate incubated for 30 mins in presence of [gamma-33P]ATP by filter binding method relative to control
Chain of Serine/threonine-protein kinase PAK 6 (Homo sapiens) (Q9NQU5 whole entry, looked up, the tested form may be a part): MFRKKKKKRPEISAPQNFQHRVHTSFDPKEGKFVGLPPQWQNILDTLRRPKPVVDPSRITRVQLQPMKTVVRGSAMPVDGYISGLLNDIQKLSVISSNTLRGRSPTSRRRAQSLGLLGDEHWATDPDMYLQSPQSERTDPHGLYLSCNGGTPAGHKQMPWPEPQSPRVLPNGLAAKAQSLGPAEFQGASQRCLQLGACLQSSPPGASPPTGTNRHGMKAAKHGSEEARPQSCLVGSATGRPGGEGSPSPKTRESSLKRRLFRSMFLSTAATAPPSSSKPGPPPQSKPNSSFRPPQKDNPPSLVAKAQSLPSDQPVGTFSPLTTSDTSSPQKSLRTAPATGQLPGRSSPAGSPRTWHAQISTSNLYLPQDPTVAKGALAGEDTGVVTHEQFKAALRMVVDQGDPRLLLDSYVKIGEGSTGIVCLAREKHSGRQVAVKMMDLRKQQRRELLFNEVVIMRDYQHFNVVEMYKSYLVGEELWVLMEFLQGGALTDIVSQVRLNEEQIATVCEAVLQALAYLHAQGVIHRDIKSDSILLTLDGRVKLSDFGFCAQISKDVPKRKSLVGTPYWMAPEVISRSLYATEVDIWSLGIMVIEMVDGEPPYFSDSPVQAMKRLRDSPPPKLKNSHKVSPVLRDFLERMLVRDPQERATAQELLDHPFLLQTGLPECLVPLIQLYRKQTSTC

## CC(C)(O)CNc1ncc(-c2ccnc(Nc3ccnc(Cl)c3)n2)c(CC2CC2)n1
[1]
  inhibition: inactive
[2]
  Activity: 82%
[3]
  inhibition: inactive
[4]
  inhibition: inactive
[5]
  inhibition: inactive
[6]
  inhibition: inactive
[7]
  Activity: 97%
[8]
  inhibition: inactive
[9]
  IC50: > 10 µM
[10]
  inhibition: inactive
[11]
  Activity: 112%
[12]
  inhibition: inactive
[13]
  Activity: 108%
[14]
  Activity: 114%
[15]
  inhibition: inactive
[16]
  Activity: 103%
[17]
  Activity: 133%
[18]
  inhibition: inactive
[19]
  inhibition: inactive
[20]
  Activity: 92%
[21]
  Activity: 105%
[22]
  inhibition: inactive
[23]
  Activity: 106%
[24]
  inhibition: inactive
[25]
  Activity: 97%
